According to publication PMC10354055, “An optimized Nurr1 agonist provides disease-modifying effects in Parkinson’s disease models” (Nature Communications, 2023):
Several values for one entry are separate records, joined by “and”; a condition that tells them apart may be missing. Identical values can stand only once.

Columns and labels:
N27-A cells = assay: Lysosomal pH detection, LysoSensor, N27-A cells; type: cell-based, rat; conditions: for Lysosomal pH: Figure 3d, individual replicates
Procedure: (§1) Lysosomal pH was detected as previously described. Briefly, after incubation in EBSS containing BafA1 (10 nM), CQ (20 µM), or 4A7C-301 (1 µM) for 6 h, HeLa and N27-A cells were treated with LysoSensor™ Yellow/Blue DND-160 (5 µM; Life Technology) for 45 min, followed by 2 washes in HEPES buffer (Gibco). Fluorescence images at excitation/emission wavelengths of 360/460 nm and 470/525 nm were taken immediately using a 400 nm dichroic mirror (KEYENCE). The ratio of fluorescence intensities (F360/470) were measured and calculated manually using ImageJ for each cell. The average pH from measuring 5 cells from each of three wells for each treatment group in both HeLa and N27-A cells was calculated by fitting the F360/470 values to a plotted pH calibration curve with KCl/NaCl buffered from pH 3.5 to 7.0 using GraphPad Prism (Version 8.0.2).

Nurr1 protein = Nurr1 protein level, Western blot, MN9D cells with MPP+ or αSyn overexpression; type: cell-based, mouse; conditions: for Relative Nurr1 expression (% of Cont.): Fig. S4g; for Relative Nurr1 expression (% of +GFP Basal): Fig. S4i
Procedure: Experiments were confirmed by duplicate measurements of the same sample. Quantification of immunoreactive bands was performed using ImageJ software (NIH, Bethesda, MD, USA) and expressed as a relative ratio against β-actin.
Lenti-GFP, -αSyn^WT, and -αSyn^A53T viruses were generated separately by co-transfecting each shuttle plasmid with lentivirus packaging plasmids into HEK293T cells using lipofectamine 2000 (Invitrogen). Briefly, 2 μg each FUW inducible shuttle plasmid, 2 μg FUW-rtTA, 2 μg psPax2 and 1.5 μg MD2.G were mixed and transfected into HEK293T cells. After 48 h, viral supernatants were collected and centrifuged at 1000g for 10 min, and subsequently filtered through a 0.45 μm filter. Lentiviruses were transduced into MN9D cells with 8 μg/ml of polybrene and the viral supernatant was removed and replaced with fresh medium a day after transduction.

MPTP-induced male mice [1] = assay: AIMs scoring (dyskinesia), MPTP-induced PD model mice; type: in vivo, mouse; conditions: for abnormal involuntary movements (AIMs) (in words): CQ 40, 4A7C-301 5, L-DOPA 50 mg/kg/day, i.p.; for AIMs score (20-140 min): Figure 4f, MPTP-induced mice, individual animal values
Procedure: (§2) Male C57BL/6 J mice (8–10 weeks, 25–30 g; Jackson Laboratories) were randomly assigned to 5 groups including vehicle (VEH), MPTP, MPTP + L-DOPA, MPTP + CQ and MPTP + 4A7C-301 (n ≥ 7 for each group). MPTP (Sigma-Aldrich) was intraperitoneally (i.p.) injected (30 mg/kg) for 5 days (Day 1-5). Different dosages of CQ (20, 40, and 80 mg/kg) and 4A7C-301 (1, 5, 20 mg/kg) were first tested to determine the effective dose window, then 40 and 5 mg/kg doses were finally selected for CQ and 4A7C-301 respectively to show the most prominent effects. CQ or 4A7C-301 was dissolved in PBS and administrated (i.p.) for 16 days starting with MPTP injection (Day 1-16). To test dyskinetic involuntary behavior, an L-DOPA injected group was included, which received 50 mg/kg of L-DOPA and 15 mg/kg of benserazide (Sigma-Aldrich) (i.p.) for 16 days (Day 1–16). All compounds were administered 6 h post-MPTP injection to avoid any effect of compounds on the MPTP metabolism in the brain. Motor and non-motor related behavior tests were performed on the following days as described in Fig. 4a in an assessor- and observer-blinded fashion. Pre-training and baseline setup for motor-related behaviors were performed 3 days prior to the injections. Mice were sacrificed and subjected to immunohistochemistry. Mice were housed at the Animal Care Facilities of McLean Hospital under a 12-h light/12-h dark cycle, ambient temperature and humidity. Animals were handled in accordance with McLean Hospital’s Institutional Animal Care and Use Committee (Protocol #: 2015N000002) and followed National Institutes of Health guidelines.
Abnormal involuntary movements (AIMs) were scored using the developed mouse dyskinesia rating scale as described in Sebastianutto et al.. Briefly, 4 mice were recorded simultaneously with a Swann HD Security System (B&H Photo-Video Inc.) for 2 min per session, every 20 min during the 140 min following drug injections (i.e., total 7 sessions), on every other or third day (Day 2, 4, 7, 9, 11, 13, and 16). Dyskinetic movements were scored for 3 subtypes of basic AIMs including axial, forelimb and orolingual AIMs, based on the severity scale from 0 to 4 which measures the duration of AIMs (0 = no dyskinesia; 1 = display dyskinesia for <50% of the observation time; 2 = display dyskinesia for >50% of the observation time; 3 = display dyskinesia for the entire observation period but ceased upon external stimuli; 4 = display continuous and unceasing dyskinesia). To get a better and more sensitive validation of mice dyskinesia, we included an amplitude AIMs score, which rates the degree of deviation of body part or muscle position from its resting position on a 0-4 scale as previously described. Finally, global AIMs score was calculated by multiplying basic AIMs and amplitude AIMs scores for each subtype on each session. Data points were plotted as the grand total of individual AIMs score on each testing day.

HeLa cells = assay: Lysosomal pH detection, LysoSensor, HeLa cells; type: cell-based; conditions: for Lysosomal pH: Supplementary Figure S7d, individual replicates
Procedure: as §1

MPTP-induced male mice [2] = assay: Cylinder test, MPTP-induced PD model mice; type: in vivo, mouse; conditions: for Number of rearing: Figure 4d, MPTP-induced mice, individual animal values
Procedure: as §2, with “MPTP” for “Male C57BL/6 J mice (8–10 weeks, 25–30 g; Jackson Laboratories) were randomly assigned to 5 groups including vehicle (VEH), MPTP, MPTP + L-DOPA, MPTP + CQ and MPTP + 4A7C-301 (n ≥ 7 for each group). MPTP”, “Different dosages of CQ (20, 40, and 80 mg/kg) and 4A7C-301 (1, 5, 20 mg/kg) were first tested to determine the effective dose window, then 40 and 5 mg/kg doses were finally selected for CQ and 4A7C-301 respectively to show the most prominent effects. CQ or 4A7C-301 was dissolved in PBS and administrated (i.p.) for 16 days starting with MPTP injection (Day 1-16).” left out
Mice were placed in a transparent plastic cylinder (15.5 cm high, 12.7 cm diameter) with a mirror behind it. Spontaneous activity was recorded and measured as counting the number of rearing events for 3 min session. A rear was considered only when the mouse touched the wall of the cylinder with its forelimb paws while standing on its hindlimbs (vertical movement) to count meaningful physiological movements.

[3] = against MPP+ and αSynWT overexpression

Row | SMILES | Lysosomal pH (N27-A cells) | Nurr1 protein levels (in words) (Nurr1 protein; [3]) | abnormal involuntary movements (AIMs) (in words) (MPTP-induced male mice [1]) | AIMs score (20-140 min) (MPTP-induced male mice [1]; day 2) | AIMs score (20-140 min) (MPTP-induced male mice [1]; day 4) | AIMs score (20-140 min) (MPTP-induced male mice [1]; day 7) | AIMs score (20-140 min) (MPTP-induced male mice [1]; day 9) | AIMs score (20-140 min) (MPTP-induced male mice [1]; day 11) | AIMs score (20-140 min) (MPTP-induced male mice [1]; day 13) | AIMs score (20-140 min) (MPTP-induced male mice [1]; day 16) | Lysosomal pH (HeLa cells) | Number of rearing (MPTP-induced male mice [2]) | further results
1 | CCN(CC)CCCC(C)Nc1ccnc2cc(Cl)ccc12 (stereo not drawn) [CQ, chloroquine] | 4.937 and 5.068 and 5.133 and 5.85 and 5.426 and 5.296 and 5.622 and 4.4486 and 5.263 and 4.481 and 5.947 | significantly restored | did not induce any detectable AIMs | 0 | 0 | 0 | 0 | 0 | 0 | 0 | 5.589 and 4.742 and 6.013 and 6.078 and 6.11 and 5.947 and 5.068 and 6.501 and 6.208 and 6.469 and 5.524 and 5.98 and 6.534 and 5.556 | 9 and 22 and 80 and 21 and 16 and 37 and 89 and 30 and 61 | lysosomal pH (in words) (N27-A cells; N27-A, BafA1 10 nM, CQ 20 µM, 4A7C-301 1 µM): significantly increased; lysosomal pH (in words) (HeLa cells; HeLa, BafA1 10 nM, CQ 20 µM, 4A7C-301 1 µM): significantly increased
2 | CCN1CCN(c2cc(N3CCN(CC)CC3)nc(NCCNc3ccnc4cc(Cl)ccc34)n2)CC1 [4A7C-301, N^1-(4,6-bis(4-ethylpiperazin-1-yl)pyrimidin-2-yl)-N^2-(7-chloroquinolin-4-yl)ethane-1,2-diamine] | 3.797 and 3.992 and 4.709 and 4.807 and 4.383 and 3.8621 and 3.96 and 4.416 and 4.97 and 4.481 and 4.351 and 4.742 and 4.221 and 3.927 | significantly restored | did not induce any detectable AIMs | 0 | 0 | 0 | 0 | 0 | 0 | 0 | 4.318 and 4.4486 and 4.774 and 4.612 and 4.807 and 4.905 and 4.677 and 3.797 and 4.742 and 4.872 and 3.764 and 3.96 and 3.927 and 3.536 | 34 and 51 and 29 and 33 and 22 and 71 and 46 | Relative Nurr1 expression (% of Cont.) (Nurr1 protein; w/ MPP+): 99.091 % of Cont. and 100.486 % of Cont. and 100.693 % of Cont.; Relative Nurr1 expression (% of Cont.) (Nurr1 protein; w/o MPP+): 101.351 % of Cont. and 99.92 % of Cont. and 104.55 % of Cont.; Relative Nurr1 expression (% of +GFP Basal) (Nurr1 protein; + GFP): 98.029 % of +GFP Basal and 101.483 % of +GFP Basal and 98.211 % of +GFP Basal; Relative Nurr1 expression (% of +GFP Basal) (Nurr1 protein; + αSynA53T): 84.572 % of +GFP Basal and 86.142 % of +GFP Basal and 86.409 % of +GFP Basal; Relative Nurr1 expression (% of +GFP Basal) (Nurr1 protein; + αSynWT): 92.781 % of +GFP Basal and 95.357 % of +GFP Basal and 90.953 % of +GFP Basal; Nurr1 protein levels (in words) (Nurr1 protein; against αSynA53T overexpression): maintained; motor function, cylinder test (in words) (MPTP-induced male mice [2]; CQ 40, 4A7C-301 5, L-DOPA 50 mg/kg/day, i.p., 16 days): significantly rescued
